Reference: patent publication US12551536B2, “Semaglutide in medical therapy” (Novo Nordisk A/S, priority 2017, dated 2026)

How the values were obtained:
[1] = 52-week clinical trial in obese subjects without diabetes mellitus: gastrointestinal adverse events; format: in vivo, human; conditions: Lira 3.0 mg once daily s.c., on-treatment
Procedure: This trial was designed as a 52-week, randomised, double-blind, placebo-controlled, sixteen-armed, parallel group, multi-centre, multinational trial comparing once-daily subcutaneous administration of semaglutide in five different doses (ranging from 0.05 mg/day to 0.4 mg/day) with placebo in obese subjects without diabetes mellitus. […] The trial was double-blinded between active and placebo treatment. To ensure a sufficiently large sample of men, no more than 70% of the trial population was allowed to be women and the randomisation was stratified according to sex. Subjects were randomised in a balanced manner (6:1 active:placebo).
The primary endpoint was relative change from baseline in body weight (%) at 52 weeks. Key secondary endpoints included proportion of subjects with weight loss of ≥5% or ≥10% of baseline body weight at 52 weeks as well as change in body weight from baseline to 52 weeks. Supportive secondary safety endpoints also included gastrointestinal (GI) adverse events (i.e. nausea, vomiting, diarrhoea and constipation). During each site visit the individual subject was asked via open questions if they had experienced any medical problems since the last visit. All medical problems either observed by the site staff or the subject was reported as an adverse event and evaluated for severity and causality by the investigator. For this trial the subjects had site visits every 2 weeks for the first 20 weeks of the trial and afterwards site visits was performed every 4 weeks.
Subjects in all treatment arms including placebo received nutritional counselling and a calorie-reduced diet by a dietician or equivalent qualified delegate as well as physical activity counselling by a qualified person on a monthly basis beginning at the randomisation visit. The trial population consisted of a total of 957 subjects were randomised. A total of 777 subjects (81.2%) completed 52 weeks of treatment; 180 (18.8%) discontinued treatment prematurely with no obvious dose-dependent trend. Key inclusion criteria for this trial were: Male or female, age ≥18 years at the time of signing inform consent; body mass index (BMI)≥30.0 kg/m2 at the screening visit; and at least one unsuccessful weight loss attempt per investigator judgement. Key exclusion criteria for this trial were: A HbA1c≥6.5% at screening or diagnosed with type 1 or type 2 diabetes mellitus; Treatment with glucose lowering agent(s) within 90 days before screening; Screening calcitonin ≥50 ng/L (pg/mL); Personal or family history of medullary thyroid carcinoma or multiple endocrine neoplasia syndrome type 2; History of pancreatitis (acute or chronic); Obesity induced by endocrine disorders (e.g. Cushing Syndrome); Treatment with any medication within 90 days before screening that based on investigator's judgement may cause significant weight change; Previous surgical treatment for obesity (liposuction and/or abdominoplasty performed >1 year before screening is allowed); History of major depressive disorder within 2 years before randomisation; Any lifetime history of a suicidal attempt; and Female who is pregnant, breast-feeding or intends to become pregnant or is of childbearing potential and not using an adequate contraceptive method (adequate contraceptive measures as required by local regulation or practice).

[2] = 26-week clinical trial in adult patients with T2D: gastrointestinal adverse events incl. nausea; format: in vivo, human; conditions: on-treatment
Procedure: A 26-week, randomized, double-blind clinical trial was carried out with adult patients with T2D, HbA1c 7.0-10.0% (53-86 mmol/mol), and body mass index 24.0-40.0 kg/m^2 who were treated with diet and exercise±metformin. […] The primary endpoint was change in HbA1c from baseline to week 26. Key exclusion criteria were a history of chronic or idiopathic acute pancreatitis and moderate-to-severe renal impairment (estimated glomerular filtration rate <60 mL/min/1.73 m^2).
Trial drug administration: Following a 2-week screening period, patients received trial medication for 26 weeks, followed by a 7-week follow-up period. […] The trial was double blinded within (but not between) each dose level of semaglutide, liraglutide and placebo, as treatment was volume matched.

[3] = Lira 0.3 mg once daily s.c., N 64
[4] = Lira 0.6 mg once daily s.c., N 64
[5] = Lira 1.2 mg once daily s.c., N 64
[6] = Lira 1.8 mg once daily s.c., N 65

## CCCCCCCCCCCCCCCC(=O)N[C@@H](CCC(=O)NCCCC[C@H](NC(=O)[C@H](C)NC(=O)[C@H](C)NC(=O)[C@H](CCC(N)=O)NC(=O)CNC(=O)[C@H](CCC(=O)O)NC(=O)[C@H](CC(C)C)NC(=O)[C@H](Cc1ccc(O)cc1)NC(=O)[C@H](CO)NC(=O)[C@H](CO)NC(=O)[C@@H](NC(=O)[C@H](CC(=O)O)NC(=O)[C@H](CO)NC(=O)[C@@H](NC(=O)[C@H](Cc1ccccc1)NC(=O)[C@@H](NC(=O)CNC(=O)[C@H](CCC(=O)O)NC(=O)[C@H](C)NC(=O)[C@@H](N)Cc1cnc[nH]1)[C@@H](C)O)[C@@H](C)O)C(C)C)C(=O)N[C@@H](CCC(=O)O)C(=O)N[C@@H](Cc1ccccc1)C(=O)N[C@H](C(=O)N[C@@H](C)C(=O)N[C@@H](Cc1c[nH]c2ccccc12)C(=O)N[C@@H](CC(C)C)C(=O)N[C@H](C(=O)N[C@@H](CCCNC(=N)N)C(=O)NCC(=O)N[C@@H](CCCNC(=N)N)C(=O)NCC(=O)O)C(C)C)[C@@H](C)CC)C(=O)O [Lira, liraglutide, reference compound]
[1]
  Gastrointestinal adverse events, Observed data, % (percentage of subjects with at least one event): 74.8%
[1]; observed data
  Nausea, % (percentage of subjects experiencing at least one event): 44.7%
  Nausea, E (number of events): 89
[1]; observed data, N 103
  Nausea, Ne (number of subjects experiencing at least one event): 46
[1]; N 103
  Gastrointestinal adverse events, Observed data, Ne (number of subjects experiencing at least one event): 77
[2]; Lira 0.3 mg once daily s.c.
  Gastrointestinal adverse events, % (percentage of patients experiencing at least one event): 21.9%
  Gastrointestinal adverse events, E (number of events): 25
  Nausea, % (percentage of patients experiencing at least one event): 9.4%
  Nausea, E (number of events): 7
[2]; [3]
  Gastrointestinal adverse events, Ne (number of patients experiencing at least one event): 14
  Nausea, Ne (number of patients experiencing at least one event): 6
[2]; Lira 0.6 mg once daily s.c.
  Gastrointestinal adverse events, % (percentage of patients experiencing at least one event): 29.7%
  Gastrointestinal adverse events, E (number of events): 62
  Nausea, % (percentage of patients experiencing at least one event): 10.9%
  Nausea, E (number of events): 11
[2]; [4]
  Gastrointestinal adverse events, Ne (number of patients experiencing at least one event): 19
  Nausea, Ne (number of patients experiencing at least one event): 7
[2]; Lira 1.2 mg once daily s.c.
  Gastrointestinal adverse events, % (percentage of patients experiencing at least one event): 31.3%
  Gastrointestinal adverse events, E (number of events): 40
  Nausea, % (percentage of patients experiencing at least one event): 10.9%
  Nausea, E (number of events): 11
[2]; [5]
  Gastrointestinal adverse events, Ne (number of patients experiencing at least one event): 20
  Nausea, Ne (number of patients experiencing at least one event): 7
[2]; Lira 1.8 mg once daily s.c.
  Gastrointestinal adverse events, % (percentage of patients experiencing at least one event): 41.5%
  Gastrointestinal adverse events, E (number of events): 81
  Nausea, % (percentage of patients experiencing at least one event): 20.0%
  Nausea, E (number of events): 18
[2]; [6]
  Gastrointestinal adverse events, Ne (number of patients experiencing at least one event): 27
  Nausea, Ne (number of patients experiencing at least one event): 13
